Assay results from PubChem BioAssay AID463206 (Broad Institute, 2010).
The source made the active and inactive calls.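 How the source made its calls: active means caspase luminescence falls with dose and the half-maximal concentration AC50 from the fitted curve is at or below a set limit; inconclusive means flat fit at 30 to 70% signal loss, or invalid fit; inactive means AC50 above the limit, or signal rises instead.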

tested on: INS-1E cytokine-induced caspase-3/7, Caspase-Glo luminescence, 48 h; experiment: suppression of cytokine-driven beta-cell apoptosis – INS-1E rat cells, luminescence, orthogonal assay for beta-cell apoptosis protection project, dose response (AID 463206)

| Compound | AC50 |
| --- | --- |
| Cc1ccc(C2C(C=Nc3c(C)n(C)n(-c4ccccc4)c3=O)=C(c3ccccc3)Oc3ccccc32)cc1 (stereo not drawn) | > 26 µM (inactive) |
| Cc1ccc(O)c(N=Nc2nccs2)c1 | > 26 µM (inactive) |
| CCCCCCSc1cc(-c2nc3ccc(C)cn3c2NCCCC)ccc1OC | > 26 µM (inactive) |
| c1ccc2c(c1)ncn2CCCCOc1ccc2c(c1)CCC2 | > 26 µM (inactive) |
| Cc1ccc(Nc2cc(C)nn2-c2nc(C)cc(=O)[nH]2)cc1 | > 26 µM (inactive) |
| Cc1cccc(Cn2nnc3c2C(=O)c2ccccc2C3=O)c1 | > 26 µM (inactive) |
| CCOc1ccc(-n2c(O)c(/C=N/Nc3nc(C)cc(C)n3)c3ccccc3c2=O)cc1 | > 26 µM (inactive) |
| O=C(Nc1ncnc2c1C(c1ccccc1)c1c(ccc3ccccc13)O2)c1ccccc1 (stereo not drawn) | > 26 µM (inactive) |
| Cc1ccc(N=Cc2c(C)[nH]n(-c3nc4ccccc4[nH]3)c2=O)cc1 | > 26 µM (inactive) |
| O=C(NC(Nc1nc2ccc([N+](=O)[O-])cc2s1)(C(F)(F)F)C(F)(F)F)c1cccnc1 | > 26 µM (inactive) |
| COC(=O)c1c(C)oc2ccc(N(C(=O)c3ccncc3)S(=O)(=O)c3ccc4ccccc4c3)cc12 | > 26 µM (inactive) |
| c1ccc(C2(Cn3ccc4ccccc43)OCCO2)cc1 | > 26 µM (inactive) |
| Cc1sc2ncnc(N/N=C/c3ccccc3O)c2c1C | > 26 µM (inactive) |
| COc1ccc(CNCCc2c(C)[nH]c3ccc(OC(F)(F)F)cc23)c(OC)c1 | > 26 µM (inactive) |
| CCC1CCCCN1C(=O)c1cc(COc2ccc3ncccc3c2)on1 (stereo not drawn) | > 26 µM (inactive) |
| COc1ccc(/C(C)=N/Nc2nc(C)cc(-c3ccccc3)n2)cc1 | > 26 µM (inactive) |
| Cc1ccc(S(=O)(=O)N2CCN(c3ncnc4ccccc34)CC2)cc1 | > 26 µM (inactive) |
| CCCCC(=O)NC(c1ccc(Cl)cc1)c1ccc2cccnc2c1O (stereo not drawn) | > 12 µM (inactive) |
